For assay [1] the following is noted: in words; cited from earlier work.
The subject of assay [2] is S. exigua larvae. The experiment in a line: toxicity of furan analogs of variable side chain length in diet assay. It counts as in vivo, Spodoptera exigua. To be noted: 5 μmoles g^-1 diet.
Method: To determine the toxicity of avocadofurans and their furan analogs, five saturated furans of variable side chain lengths, namely 2-(tetradecyl)furan compound (20), 2-(pentadecyl)furan (1), 2-(hexadecyl)furan compound (21), 2-(heptadecyl)furan (4), and 2-(octadecyl)furan compound (22) were tested for their activity against S. exigua in diet assay. Diets for treatments were prepared at a concentration known to be insecticidal against S. exigua early instar of 5 μmoles g^-1 diet. To compare toxicity among furans, concentration in μmoles g^-1 diet were adjusted according to the molecular weights of individual furans.
Five saturated furans of variable side chain lengths: 2-(tetradecyl)furan (20), 2-(pentadecyl)furan (1), 2-(hexadecyl)furan (21), 2-(heptadecyl)furan (4), and 2-(octadecyl)furan (22) were tested for activity against S. exigua in diet bioassays. Treated diets were prepared at a concentration known to be insecticidal against S. exigua early instars (5 μmoles g^-1 diet). To compare toxicity among furans, concentrations in μmoles g^-1 of diet were used to compensate for their different molecular weights.
Each furan compound was transferred into a 50-ml polypropylene centrifuge tube (Fisher, Pittsburgh Pa.), added 2 ml of 0.1% Tween-80 solution (Fisher), homogenized with an ultrasonic homogenizer (Cole-Parmer, Chicago, Ill.), and artificial diet was added to produce a final weight of 15 g. The mixture was vortexed for 3 mm. Control diet was prepared by mixing 2 ml of Tween solution with 13 g of artificial diet to produce a final weight of 15 g. Control and treated diets were poured into 16-well bioassay trays (C-D International Inc., Pitman N.J.). One neonate was added per well. Trays were placed in an incubator set for conditions described previously. Twenty-four neonates were tested for each treatment. Each treatment was replicated four times (total of 96 larvae/treatment). Larval mortality and weight were recorded after 9 days.
Assay [3] deals with Colletotrichum gloeosporioides. The settings on record: in words; cited from earlier work.
A further assay relates to Bombyx mori L. larvae. To be noted: 4th instar, within 2 days; cited from earlier work.
The test system of the next assay is Staphylococcus aureus. To be noted: in words; cited from earlier work.
In the next assay the test system is Bacillus subtilis. The settings on record: in words; cited from earlier work.
Assay [4] has as its system S. exigua larvae. The assay is described as follows: growth inhibition and mortality of synthetic avocadofurans and triolein in diet bioassay. It counts as in vivo, Spodoptera exigua. To be noted: 3,500 μg/g.
In assay [5] the test system is S. exigua larvae. Described as above. It counts as in vivo, Spodoptera exigua. As for the experimental part:
S. exigua larvae were used in all experiments. Larvae were reared on artificial diet modified from U.S.D.A. Agric. Res. Serv., Prod. Res. Rep., 1208:1 (1969), and maintained at 28+2° C., 14:10; light:dark (L:D) photoperiod.
The colony was collected from Orange Co., Calif. and had new genetic material added within 12 months prior to the study. The age of the cohorts tested was standardized by using neonates within 12 hours of eclosion. All bioassays were maintained at 28+2° C. 75% relative humidity (RH), and at 14:10 (L:D) photoperiod with fluorescent lighting.
The insecticidal activity of the fractions was tested with artificial diet bioassays. Treated diets were prepared by transferring 750 μl of acetone solutions of each fraction (equivalent to 300 mg crude idioblast cell oil) into 50-ml polypropylene centrifuge tubes (Fisher, Pittsburgh Pa.), evaporating the acetone, adding 2 ml of 0.1% Tween-80 solution (Fisher), homogenizing with an ultrasonic homogenizer (Co le-Parmer, Chicago Ill.), and adding prepared diet to produce a final weight of 15 g containing the equivalent of 2% idioblast oil. The mixture was vortexed for 3 mm.
Control diet was prepared by mixing 2 ml of Tween solution and 13 g of artificial diet to produce a final weight of 15 g. Control and treated diets were poured into 24-well (15.9 mm diameter and 15.9 mm depth) bioassay trays (C-D International Inc., Pitman N.J.). One neonate was added per well, and trays were placed in an incubator under the previously described conditions. Twenty-four neonates were tested for each fraction and control. Mortality and larval weights were recorded after 7 days.
The effect of the synthetically produced avocado furan compounds (>95% purity) and commercially available triolein (Sigma, St. Louis, Mo.) were tested on larval growth and mortality of S exigua. Treated and control diet were prepared as previously described.
Six different compound concentrations, chosen on the basis of studies with the oil fractions, were evaluated for both 2-(pentadecyl)furan and 2-(heptadecyl)furan: 0 (control), 600, 750, 900, 1050, and 1200 μg/g. Also, six concentrations of triolein (subfraction 1-1-12) were tested: 0 (control), 7000, 8000, 9000, 10000, and 11000 μg/g.
Twenty-four neonates were used per treatment. Bioassays were conducted as described in Example 4, and replicated 4 times for each concentration (i.e., a total of 96 larvae were tested for each concentration). Larval weight, instar, and mortality were recorded after 7 days […].
EC (effective concentration) values were calculated by subtracting the mean larval weight for each treatment from the mean weight of the controls, and dividing by the mean weight of the controls. LC (lethal concentration) values were obtained using probit analysis as described in Probit Analysis (1971) Cambridge University Press, Cambridge, UK. GI (growth index) and RGI (relative growth index) values were calculated as described in J. Chem. Ecol., 19:1109 (1993), but using an imax of 3 (the stage attained by most control larvae after 7 d). Statistical comparisons were conducted using SuperAnova Abacus Concept Inc., Berkeley, Calif. (1989).

Regarding `C#CCCCCCCCCCCCC(O)CC(O)COC(C)=O` (stereo not drawn) [1-acetoxy-2,4-dihydroxyheptadec-16-yne], in assay [1], the “fungicidal / antifungal activity” value is “antifungal activity”.
For the molecule `C#CCCCCCCCCCCCC(O)CC(O)CO` (stereo not drawn) [1,2,4-trihydroxyheptadec-16-yne], the “fungicidal / antifungal activity” value in assay [1] was “antifungal activity”.
Consider `C=CCCCCCCCCCCCC(O)CC(O)COC(C)=O` (stereo not drawn) [1-acetoxy-2,4-dihydroxy-n-heptadec-16-ene], for which the “fungicidal / antifungal activity” value in assay [1] is reported as “active as a fungicide”.
Consider `CCCCCCCCCCCCCCCCc1ccco1` [2-(hexadecyl)furan], for which the “effect on 9-day larval weight (FIG. 5B)” value in the assay with S. exigua larvae [2] (in words) was “comparable to the best compound described above, namely compound (1)”.
With `CCCCC/C=C\C/C=C\CCCCCCCC(=O)CC(O)COC(C)=O` (single isomer, unassigned) [persin, 1-acetoxy-2-hydroxy-4-oxo-heneicosa-(12Z,15Z)-diene], the antifungal activity entry in assay [3] is “antifungal activity”. In the assay with Bombyx mori L. larvae, the “concentration at which growth inhibited” value is 200 µg/g.
The mortality is the percentage killed. As for `CCCCCCCCCCCCCCc1ccco1` [2-(tetradecyl)furan], the “effect on mortality (FIG. 5A)” value with S. exigua larvae [2] (9 d, in words) was “had the lowest activity”. Also, the “effect on 9-day larval weight (FIG. 5B)” value with S. exigua larvae [2] (in words) is “significantly reducing larval weight compared to the control”. Besides, the mortality at 5 µmol/g in the assay on S. exigua larvae [2] (Spodoptera exigua, feed or water, 216 h, 9 d, read-out: mortality of S. exigua larvae (FIG. 5A)) was under 50%.
In the case of `C=CCCCCCCCCCCCC(O)CC(O)CO` (stereo not drawn) [1,2,4-trihydroxy-n-heptadec-16-ene], the “fungicidal / antifungal activity” value in assay [1] is on record as “antifungal activity”.
Regarding `C=CCCCCCCCCCCCc1ccco1` [2-(trideca-12-enyl)furan], the growth inhibitory activity result with Staphylococcus aureus and in the assay on Bacillus subtilis was “growth inhibitory activity” throughout.
As for `CCCCCCCCCCCCC/C=C/c1ccco1` [2-(1E-pentadecenyl)furan], in the assay on S. exigua larvae [4], the “reduction of larval growth compared to controls” value was 57.3%. In addition, the mortality at 3500 µg/g with S. exigua larvae [5] (Spodoptera exigua, feed or water, 3,500 μg/g) is 12.5%. Besides, the “concentration at which S. exigua growth is inhibited / compound active” value in the assay on S. exigua larvae [5] (lowest active concentration, in diet) is listed as ≥ 3,500 μg/g.

These data come from patent US6133313A, “Insecticidal avocadofurans and triolein” (The Regents of the University of California, priority 1998, dated 2000).
